Results taken from publication PMC4476799, “Englerin A Agonizes the TRPC4/C5 Cation Channels to Inhibit Tumor Cell Line Proliferation” (PLoS ONE, 2015).

Assays:
A-673 cells = type: cell-based
Protocol: Cell viability was measured 48 hours later using Cell Titer-Glo.

TRPC4 = target: T1, TRPC4 (Homo sapiens, UniProt Q9UBN4); assay: Electrophysiology (QPatch-HT automated patch clamp, voltage ramp); type: cell-based; conditions: 10 μM ML204 + 5 μM englerin A; Dox-induced TRPC4
T1 construct: host or cells: Flp-In T-REx-293 (called HEK293T with Dox-inducible TRPC4)
T1 sequence (Q9UBN4 1-977): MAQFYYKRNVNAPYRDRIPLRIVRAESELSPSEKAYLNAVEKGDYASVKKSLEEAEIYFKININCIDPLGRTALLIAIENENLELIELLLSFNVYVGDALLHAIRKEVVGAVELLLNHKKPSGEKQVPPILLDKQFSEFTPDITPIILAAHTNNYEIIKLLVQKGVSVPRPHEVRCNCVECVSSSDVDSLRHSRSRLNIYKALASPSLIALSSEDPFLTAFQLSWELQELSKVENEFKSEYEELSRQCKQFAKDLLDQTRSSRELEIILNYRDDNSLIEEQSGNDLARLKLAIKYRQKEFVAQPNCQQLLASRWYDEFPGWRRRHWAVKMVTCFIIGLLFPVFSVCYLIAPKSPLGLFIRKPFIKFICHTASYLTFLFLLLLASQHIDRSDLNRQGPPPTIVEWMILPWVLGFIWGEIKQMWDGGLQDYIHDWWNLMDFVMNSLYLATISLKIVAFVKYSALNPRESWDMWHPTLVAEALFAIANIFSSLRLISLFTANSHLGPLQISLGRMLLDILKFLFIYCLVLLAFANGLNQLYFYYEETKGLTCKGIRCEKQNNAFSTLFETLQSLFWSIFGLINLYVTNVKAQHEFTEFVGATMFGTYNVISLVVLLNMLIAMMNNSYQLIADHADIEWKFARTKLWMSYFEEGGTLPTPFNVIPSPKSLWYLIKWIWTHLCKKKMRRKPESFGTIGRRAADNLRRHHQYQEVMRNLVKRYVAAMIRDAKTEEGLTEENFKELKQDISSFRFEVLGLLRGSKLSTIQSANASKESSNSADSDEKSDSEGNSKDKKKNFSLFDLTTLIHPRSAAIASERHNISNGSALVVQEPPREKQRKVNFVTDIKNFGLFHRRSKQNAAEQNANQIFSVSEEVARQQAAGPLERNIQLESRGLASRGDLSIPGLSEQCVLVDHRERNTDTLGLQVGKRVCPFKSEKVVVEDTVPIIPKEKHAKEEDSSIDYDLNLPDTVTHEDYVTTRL
Protocol: TRPC4 currents were recorded from HEK293T cells with Dox-inducible TRPC4 on the QPatch-HT automated patch clamp system at room temperature (21–24°C) (Biolin Scientific, Stockholm, Sweden). The internal solution contained (in mM): 150 Cs-aspartate, 2 MgCl2, 0.36 CaCl2, 1 EGTA, 4 MgATP, 0.3 NaGTP and 10 HEPES, pH = 7.20 with CsOH (calculated free [Ca^2+] = 100 nM using WebMaxChelator http://www.stanford.edu/~cpatton/maxc.html, assuming an ionic strength of 0.16). The standard external solution contained (in mM): 150 NaCl, 4 KCl, 2 CaCl2, 1 MgCl2, 10 HEPES and 10 D-glucose (pH = 7.40) with NaOH. Currents were elicited by a voltage ramp protocol consisting of a 50 ms step to −100 mV, followed by a 200 ms ramp to +100 mV and 10 ms at +100 mV. Voltage ramps were applied every 10 s from a holding potential of 0 mV. Results were expressed as means ± S.E.M.

effect on englerin A induced inward and outward currents (TRPC4): inhibited
SMILES: Cc1cc(N2CCCCC2)nc2ccccc12 [ML204]
doses of ML204 alone at which A-673 cell growth is impaired (A-673 cells): higher than 50 μM
rescue of growth inhibition by englerin A (A-673 cells; 50 μM ML204 with 50 nM englerin A, A-673 cells): partially rescued
